Test results reported in ChEMBL document CHEMBL1134662, “Selective, high affinity peptide antagonists of alpha-melanotropin action at human melanocortin receptor 4: their synthesis and biological evaluation in vitro” (J Med Chem, 2001).
Peptide text beside a SMILES is read from it.

Tests used:
Melanocortin receptor 3 = Melanocortin receptor 3 (Homo sapiens, UniProt P41968)
Description: Binding affinity against human melanocortin receptor 3 (hMC3R) (concentration of the peptide at 50% specific binding)

Melanocortin receptor 4 = Melanocortin receptor 4 (Homo sapiens, UniProt P32245)
Description: Binding affinity against human melanocortin receptor 4 (hMC4R) (concentration of the peptide at 50% specific binding)

Melanocortin receptor 5 [1] = biological target: T1, Melanocortin receptor 5 (Homo sapiens, UniProt P33032); experiment: Increase in intracellular cAMP in CHO cells expressing human melanocortin receptor 5.; format: functional, cell-based
Melanocortin receptor 5 [2] = biological target: T1, Melanocortin receptor 5
Description: Binding affinity against human melanocortin receptor 5 (hMC5R) (concentration of the peptide at 50% specific binding)

Melanocortin receptor 5 [3] = biological target: T1, Melanocortin receptor 5; experiment: Signal transduction efficacy in cAMP assay in the CHO cells expressing human melanocortin receptor 5; format: functional, cell-based

Sequence of Melanocortin receptor 4 (P32245 whole entry): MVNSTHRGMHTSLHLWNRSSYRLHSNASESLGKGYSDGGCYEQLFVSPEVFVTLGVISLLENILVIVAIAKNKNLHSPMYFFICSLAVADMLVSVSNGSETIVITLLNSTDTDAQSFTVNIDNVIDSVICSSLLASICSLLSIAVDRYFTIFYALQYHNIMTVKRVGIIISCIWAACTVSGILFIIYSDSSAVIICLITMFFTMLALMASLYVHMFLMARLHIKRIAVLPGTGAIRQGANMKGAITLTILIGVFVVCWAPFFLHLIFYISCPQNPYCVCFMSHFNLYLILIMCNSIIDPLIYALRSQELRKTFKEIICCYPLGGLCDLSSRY
T1 sequence (P33032 whole entry): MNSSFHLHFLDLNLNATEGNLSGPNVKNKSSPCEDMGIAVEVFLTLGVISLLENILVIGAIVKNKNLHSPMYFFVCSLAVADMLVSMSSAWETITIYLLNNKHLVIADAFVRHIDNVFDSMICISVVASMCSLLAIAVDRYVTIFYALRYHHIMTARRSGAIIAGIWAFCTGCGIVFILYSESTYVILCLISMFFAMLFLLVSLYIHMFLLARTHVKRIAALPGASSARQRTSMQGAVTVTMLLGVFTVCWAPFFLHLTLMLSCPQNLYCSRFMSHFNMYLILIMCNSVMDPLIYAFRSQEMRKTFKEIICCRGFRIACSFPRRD
Sequence of Melanocortin receptor 3 (P41968 whole entry): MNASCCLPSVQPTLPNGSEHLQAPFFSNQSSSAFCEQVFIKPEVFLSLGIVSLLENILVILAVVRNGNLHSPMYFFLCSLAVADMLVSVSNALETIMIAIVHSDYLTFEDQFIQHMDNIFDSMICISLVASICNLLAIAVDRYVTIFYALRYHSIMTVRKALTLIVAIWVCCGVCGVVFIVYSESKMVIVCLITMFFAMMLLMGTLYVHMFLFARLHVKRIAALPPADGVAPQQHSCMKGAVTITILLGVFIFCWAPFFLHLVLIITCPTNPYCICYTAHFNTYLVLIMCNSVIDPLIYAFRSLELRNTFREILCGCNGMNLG

SMILES: CC(=O)N[C@H]1CC(=O)NCCCC[C@@H](C(N)=O)NC(=O)[C@H](Cc2c[nH]c3ccccc23)NC(=O)[C@H](CCCNC(=N)N)NC(=O)[C@@H](Cc2ccc3ccccc3c2)NC1=O
- Ki (Melanocortin receptor 3): 190 nM
- Ki (Melanocortin receptor 4): 4.3 nM
- EC50 (Melanocortin receptor 5 [1]): 1000 nM
- Ki (Melanocortin receptor 5 [2]): 720 nM

SMILES: N=C(N)NCCC[C@H]1NC(=O)[C@@H](Cc2ccc3ccccc3c2)NC(=O)CCC(=O)NCCCC[C@H](C(N)=O)NC(=O)[C@@H](Cc2c[nH]c3ccccc23)NC1=O
- Ki (Melanocortin receptor 3): 5900 nM
- Activation at 5 µM at 5nM (Melanocortin receptor 5 [3]): 5%
- Ki (Melanocortin receptor 4): 3700 nM
- Ki (Melanocortin receptor 5 [2]): 7000 nM

SMILES: N=C(N)NCCC[C@@H]1NC(=O)[C@@H](Cc2ccc3ccccc3c2)NC(=O)[C@H](Cc2cnc[nH]2)NC(=O)[C@@H](N)CC(=O)NCCCC[C@@H](C(N)=O)NC(=O)[C@H](Cc2c[nH]c3ccccc23)NC1=O
- Ki (Melanocortin receptor 3): 14 nM
- Ki (Melanocortin receptor 4): 1.6 nM
- EC50 (Melanocortin receptor 5 [1]): 18 nM
- Ki (Melanocortin receptor 5 [2]): 18 nM

SMILES: CC(=O)N[C@H]1CSSC[C@@H](C(=O)N2CCC[C@H]2C(=O)N2CCC[C@H]2C(=O)N[C@@H](CCCCN)C(=O)N[C@@H](CC(=O)O)C(N)=O)NC(=O)CNC(=O)[C@H](Cc2c[nH]c3ccccc23)NC(=O)[C@H](CCCNC(=N)N)NC(=O)[C@@H](Cc2ccc3ccccc3c2)NC(=O)[C@H](Cc2c[nH]cn2)NC(=O)[C@H](CCC(=O)O)NC1=O (HELM PEPTIDE1{[ac].C.E.H.[O=C([C@@H](Cc1ccc2ccccc2c1)N[*:1])[*:2]].R.W.G.C.P.P.K.D.[am]}$PEPTIDE1,PEPTIDE1,2:R3-9:R3$$$V2.0)
- Ki (Melanocortin receptor 3): 25 nM
- Ki (Melanocortin receptor 4): 1.5 nM
- EC50 (Melanocortin receptor 5 [1]): 42 nM
- Ki (Melanocortin receptor 5 [2]): 16 nM

SMILES: N=C(N)NCCC[C@@H]1NC(=O)[C@@H](Cc2ccc3ccccc3c2)NC(=O)[C@H](Cc2c[nH]cn2)NCC(=O)CC[C@@H](C(N)=O)NC(=O)[C@H](Cc2c[nH]c3ccccc23)NC1=O
- Ki (Melanocortin receptor 3): 2900 nM
- Ki (Melanocortin receptor 4): 420 nM
- EC50 (Melanocortin receptor 5 [1]; cho): > 5000 nM
- Ki (Melanocortin receptor 5 [2]): 2400 nM

SMILES: N=C(N)NCCC[C@@H]1NC(=O)[C@@H](Cc2ccc3ccccc3c2)NCC(=O)CC[C@@H](C(N)=O)NC(=O)[C@H](Cc2c[nH]c3ccccc23)NC1=O
- Ki (Melanocortin receptor 3): 5900 nM
- Ki (Melanocortin receptor 4): 960 nM
- Ki (Melanocortin receptor 5 [2]): 5000 nM

SMILES: CCC1CC(=O)N[C@H](Cc2ccc3ccccc3c2)C(=O)N[C@@H](CCCN=C(N)N)C(=O)N[C@@H](Cc2c[nH]c3ccccc23)C(=O)N[C@H](C(N)=O)CCCCNC1=O (stereo in doubt; 18)
- Ki (Melanocortin receptor 3): 240 nM
- Ki (Melanocortin receptor 4): 1.5 nM
- EC50 (Melanocortin receptor 5 [1]; cho): 220 nM
- Ki (Melanocortin receptor 5 [2]): 400 nM

SMILES: N=C(N)NCCC[C@@H]1NC(=O)[C@@H](Cc2ccc3ccccc3c2)NC(=O)CCC(=O)NC[C@@H](C(N)=O)NC(=O)[C@H](Cc2c[nH]c3ccccc23)NC1=O
- Ki (Melanocortin receptor 3): 1500 nM
- Ki (Melanocortin receptor 4): 110 nM
- EC50 (Melanocortin receptor 5 [1]; cho): > 5000 nM
- Ki (Melanocortin receptor 5 [2]): 4800 nM

SMILES: N=C(N)NCCC[C@@H]1NC(=O)[C@H](Cc2ccc3ccccc3c2)NC(=O)CCC(=O)NCC[C@H](C(N)=O)NC(=O)[C@@H](Cc2c[nH]c3ccccc23)NC1=O
- Activation at 5 µM at 5nM (Melanocortin receptor 5 [3]): 13%

SMILES: N=C(N)NCCC[C@@H]1NC(=O)[C@@H](Cc2ccc3ccccc3c2)NC(=O)[C@H](Cc2c[nH]cn2)NC(=O)CCC(=O)NCCCC[C@@H](C(N)=O)NC(=O)[C@H](Cc2c[nH]c3ccccc23)NC1=O
- Ki (Melanocortin receptor 3): 47 nM
- Ki (Melanocortin receptor 4): 0.88 nM
- EC50 (Melanocortin receptor 5 [1]): 170 nM
- Ki (Melanocortin receptor 5 [2]): 150 nM

SMILES: CCC1CC(=O)N[C@H](Cc2ccc3ccccc3c2)C(=O)N[C@@H](CCCN=C(N)N)C(=O)N[C@@H](Cc2c[nH]c3ccccc23)C(=O)N[C@H](C(N)=O)CCCCNC1=O (stereo in doubt; 17)
- Ki (Melanocortin receptor 3): 120 nM
- Ki (Melanocortin receptor 4): 0.58 nM
- EC50 (Melanocortin receptor 5 [1]; cho): 240 nM
- Ki (Melanocortin receptor 5 [2]): 140 nM

SMILES: N=C(N)NCCC[C@@H]1NC(=O)[C@@H](Cc2ccc3ccccc3c2)NC(=O)[C@@H](N)CC(=O)NCCCC[C@@H](C(N)=O)NC(=O)[C@H](Cc2c[nH]c3ccccc23)NC1=O
- Ki (Melanocortin receptor 3): 420 nM
- Ki (Melanocortin receptor 4): 4 nM
- EC50 (Melanocortin receptor 5 [1]): 200 nM
- Ki (Melanocortin receptor 5 [2]): 24 nM

SMILES: N=C(N)NCCC[C@@H]1NC(=O)[C@@H](Cc2ccc3ccccc3c2)NC(=O)CCC(=O)NCCCC[C@H](C(N)=O)NC(=O)[C@@H](Cc2c[nH]c3ccccc23)NC1=O
- Ki (Melanocortin receptor 3): 5900 nM
- Activation at 5 µM at 5nM (Melanocortin receptor 5 [3]): 0%
- Ki (Melanocortin receptor 4): 1300 nM
- Ki (Melanocortin receptor 5 [2]): 4900 nM

SMILES: N=C(N)NCCC[C@@H]1NC(=O)[C@@H](Cc2ccc3ccccc3c2)NC(=O)CCC(=O)NCCCC[C@H](C(N)=O)NC(=O)[C@H](Cc2c[nH]c3ccccc23)NC1=O
- Ki (Melanocortin receptor 3): 5900 nM
- Activation at 5 µM at 5nM (Melanocortin receptor 5 [3]): 7%
- Ki (Melanocortin receptor 4): 3800 nM
- Ki (Melanocortin receptor 5 [2]): 4900 nM

SMILES: N=C(N)NCCC[C@@H]1NC(=O)[C@H](Cc2ccc3ccccc3c2)NC(=O)CCC(=O)NC2CCC(C(N)=O)N2C(=O)[C@@H](Cc2c[nH]c3ccccc23)NC1=O (stereo not given in full)
- Ki (Melanocortin receptor 3): 3000 nM
- Activation at 5 µM at 5nM (Melanocortin receptor 5 [3]): 3%
- Ki (Melanocortin receptor 4): 600 nM
- Ki (Melanocortin receptor 5 [2]): 2500 nM

SMILES: N=C(N)NCCC[C@@H]1NC(=O)[C@@H](Cc2ccc3ccccc3c2)NCC(=O)CC[C@H](C(N)=O)NC(=O)[C@@H](Cc2c[nH]c3ccccc23)NC1=O
- Inhibition at 10nM (Melanocortin receptor 5 [3]): 1%

SMILES: CC(=O)N[C@H]1CSSC[C@@H](C(N)=O)NC(=O)CNC(=O)[C@H](Cc2c[nH]c3ccccc23)NC(=O)[C@H](CCCN=C(N)N)NC(=O)[C@@H](Cc2ccc3ccccc3c2)NC(=O)[C@H](Cc2c[nH]cn2)NC(=O)[C@H](CCC(=O)O)NC1=O
- Ki (Melanocortin receptor 3): 2.6 nM
- Ki (Melanocortin receptor 4): 0.57 nM
- EC50 (Melanocortin receptor 5 [1]; cho): 0.22 nM
- Ki (Melanocortin receptor 5 [2]): 0.39 nM

SMILES: N=C(N)NCCC[C@@H]1NC(=O)[C@@H](Cc2ccc3ccccc3c2)NC(=O)CCC(=O)NCCCC[C@@H](C(N)=O)NC(=O)[C@H](Cc2c[nH]c3ccccc23)NC1=O
- Ki (Melanocortin receptor 3): 150 nM
- Ki (Melanocortin receptor 4): 0.5 nM
- EC50 (Melanocortin receptor 5 [1]): 530 nM
- Ki (Melanocortin receptor 5 [2]): 540 nM

SMILES: N=C(N)NCCC[C@@H]1NC(=O)[C@@H](Cc2ccc3ccccc3c2)NC(=O)[C@H](Cc2c[nH]cn2)NC(=O)CCC(=O)NC[C@@H](C(N)=O)NC(=O)[C@H](Cc2c[nH]c3ccccc23)NC1=O
- Ki (Melanocortin receptor 3): 29 nM
- Ki (Melanocortin receptor 4): 0.26 nM
- EC50 (Melanocortin receptor 5 [1]): 210 nM
- Ki (Melanocortin receptor 5 [2]): 65 nM

SMILES: N=C(N)NCCC[C@@H]1NC(=O)[C@@H](Cc2ccc3ccccc3c2)NC(=O)CCC(=O)NCC[C@@H](C(N)=O)NC(=O)[C@H](Cc2c[nH]c3ccccc23)NC1=O
- Ki (Melanocortin receptor 3): 3000 nM
- Ki (Melanocortin receptor 4): 58 nM
- Ki (Melanocortin receptor 5 [2]): 2700 nM

SMILES: N=C(N)NCCC[C@@H]1NC(=O)[C@@H](Cc2ccc3ccccc3c2)NC(=O)CCC(=O)NCCC[C@@H](C(N)=O)NC(=O)[C@H](Cc2c[nH]c3ccccc23)NC1=O
- Ki (Melanocortin receptor 3): 56 nM
- Ki (Melanocortin receptor 4): 0.37 nM
- EC50 (Melanocortin receptor 5 [1]): 300 nM
- Ki (Melanocortin receptor 5 [2]): 130 nM

SMILES: CC(=O)N[C@H]1CSSC[C@@H](C(=O)N2CCC[C@H]2C(=O)N2CCC[C@H]2C(=O)N[C@@H](CCCCN)C(=O)N[C@@H](CC(=O)O)C(N)=O)NC(=O)CNC(=O)[C@H](Cc2c[nH]c3ccccc23)NC(=O)[C@H](CCCN=C(N)N)NC(=O)[C@@H](Cc2ccc(Cl)c(Cl)c2)NC(=O)[C@H](Cc2c[nH]cn2)NC(=O)[C@H](CCC(=O)O)NC1=O
- Ki (Melanocortin receptor 3): 20 nM
- Ki (Melanocortin receptor 4): 2.2 nM
- EC50 (Melanocortin receptor 5 [1]): 73 nM
- Ki (Melanocortin receptor 5 [2]): 22 nM
